The source made the active and inactive calls. No rule for the calls is given here.
Target: Chaperone protein DnaK (Escherichia coli (strain K12)) (UniProt P0A6Y8)
Experiment: E. coli DnaK SBD ligand binding – biophysical, NMR, chaperone (AID 1033)
Conditions: Purified DnaK SBD

Chaperone protein DnaK (Escherichia coli (strain K12)), sequence (P0A6Y8 whole entry, looked up): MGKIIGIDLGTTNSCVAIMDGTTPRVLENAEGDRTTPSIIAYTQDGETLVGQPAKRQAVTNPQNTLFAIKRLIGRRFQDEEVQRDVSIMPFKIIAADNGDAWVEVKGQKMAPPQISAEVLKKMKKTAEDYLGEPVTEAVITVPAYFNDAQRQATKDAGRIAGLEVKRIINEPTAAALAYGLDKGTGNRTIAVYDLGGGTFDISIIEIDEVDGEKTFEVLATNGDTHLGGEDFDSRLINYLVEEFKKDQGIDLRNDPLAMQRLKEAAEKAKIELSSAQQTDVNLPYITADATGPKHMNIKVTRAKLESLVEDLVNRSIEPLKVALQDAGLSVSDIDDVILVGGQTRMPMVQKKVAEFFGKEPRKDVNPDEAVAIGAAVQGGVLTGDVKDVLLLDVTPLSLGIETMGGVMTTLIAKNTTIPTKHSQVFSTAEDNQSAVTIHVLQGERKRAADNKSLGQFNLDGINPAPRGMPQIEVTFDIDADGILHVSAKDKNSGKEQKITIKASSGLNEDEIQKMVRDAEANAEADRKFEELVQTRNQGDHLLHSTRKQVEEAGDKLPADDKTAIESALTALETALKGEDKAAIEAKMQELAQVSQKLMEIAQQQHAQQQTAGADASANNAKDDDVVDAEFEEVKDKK

**Q.** With C=C[C@@](C)(O)CCC1C(=C)C[C@H](OC(C)=O)C2C(C)(C)CCCC12C (stereo not given in full) as the compound, how does the Kd read?
**A.** > 4 mM (inactive)

**Q.** O=C(c1ncc[nH]1)c1ccccc1C(=O)N1CCOCC1 was tested. Which Kd did it give?
**A.** > 4 mM (inactive)

**Q.** Which Kd does the source give for COCC(=O)Nc1nc2ccc(C)cc2s1 here?
**A.** > 4 mM (inactive)

**Q.** With O=C(Nc1nnc(-c2cccnc2)o1)c1ccccc1F as the compound, how does the Kd read?
**A.** > 4 mM (inactive)

**Q.** For COc1c2ccoc2cc2oc(C)cc(=O)c12, which Kd is on record?
**A.** > 4 mM (inactive)

**Q.** How did the Kd turn out when O=C(NN1C(=O)C2C3C=CC(C3)C2C1=O)C1CC=CCC1 (stereo not given) was run?
**A.** > 4 mM (inactive)

**Q.** O=C(NCc1cccc2ccsc12)c1cccs1 was tested. Which Kd did it give?
**A.** < 0.2 mM

**Q.** How did the Kd turn out when O=c1cc(-c2ccccc2)oc2c(O)c(O)ccc12 was run?
**A.** > 4 mM (inactive)

**Q.** Which Kd does the source give for Cc1nc2nc(Cc3ccccc3)[nH]n2c(=O)c1Cl here?
**A.** > 4 mM (inactive)

**Q.** For O=C(Nc1nc2ccccc2s1)c1ccc(=O)[nH]n1, which Kd is on record?
**A.** > 4 mM (inactive)

**Q.** Which Kd does the source give for N/C(=N/S(=O)(=O)c1cccs1)c1ccccc1 here?
**A.** > 4 mM (inactive)

**Q.** O=S(=O)(Cc1ccccc1)N1CCCCCC1 was tested. Which Kd did it give?
**A.** > 4 mM (inactive)

**Q.** For CCC(=O)NC(=S)Nc1ccc(O)cc1, which Kd is on record?
**A.** > 4 mM (inactive)

**Q.** For Cc1nn(C)c2sc(C(=O)O)cc12, which Kd is on record?
**A.** > 4 mM (inactive)

**Q.** Which Kd does the source give for CC(C)=CC(=O)Nc1ccccc1C(N)=O here?
**A.** > 4 mM (inactive)

**Q.** How did the Kd turn out when Cn1c(O)c(/C=C2\C=CC=N2)c(=O)[nH]c1=S was run?
**A.** > 4 mM (inactive)

**Q.** Which Kd does the source give for CCC(=O)Nc1ccccc1NC(C)=O here?
**A.** > 4 mM (inactive)

**Q.** For Cc1cccn2cc(CNc3ccccc3)nc12, which Kd is on record?
**A.** > 4 mM (inactive)

**Q.** With Cc1cc2ncc(C(=O)Nc3ccccc3)c(C)n2n1 as the compound, how does the Kd read?
**A.** > 4 mM (inactive)

**Q.** COc1cc2c(cc1OC)-c1cc3ccc(OC)c(OC)c3c[n+]1CC2 was tested. Which Kd did it give?
**A.** > 4 mM (inactive)

**Q.** Cn1c(NCc2ccco2)nc2ccccc21 was tested. Which Kd did it give?
**A.** > 4 mM (inactive)

**Q.** For O=C1C=C(Nc2ccc(O)cc2)c2ccccc2C1=O, which Kd is on record?
**A.** > 4 mM (inactive)

**Q.** With CCc1sc(C(=O)NC)cc1Br as the compound, how does the Kd read?
**A.** > 4 mM (inactive)

**Q.** With O=C(O)c1cccnc1N1CCOCC1 as the compound, how does the Kd read?
**A.** > 4 mM (inactive)

**Q.** How did the Kd turn out when COc1ccc(/C=C/c2cc(O)cc(O)c2)cc1 was run?
**A.** > 4 mM (inactive)

**Q.** How did the Kd turn out when Nc1ccc2c(c1)CCCC2=O was run?
**A.** > 4 mM (inactive)

**Q.** For CCC(=O)OC1[C@@H]2CC3=C4CC(=O)O[C@@H](c5ccoc5)[C@]4(C)CCC3C(C)(C2=O)[C@@H](CC(=O)OC)C1(C)C (stereo not given in full), which Kd is on record?
**A.** > 4 mM (inactive)

**Q.** With CC1(C)C2CC(=O)[C@]3(C)C(CC[C@@]4(C)[C@H](c5ccoc5)OC(=O)[C@H]5O[C@]543)[C@@]2(C)C(=O)C[C@H]1O (stereo not given in full) as the compound, how does the Kd read?
**A.** > 4 mM (inactive)

**Q.** How did the Kd turn out when Fc1cccc(F)c1CN1CCN(c2ncccn2)CC1 was run?
**A.** > 4 mM (inactive)

**Q.** With C/C=C/C=N/NC(=O)c1ccc(=O)n(C)c1 as the compound, how does the Kd read?
**A.** > 4 mM (inactive)

**Q.** For Cc1nnc2sc(-c3csc4c3CCCC4)nn12, which Kd is on record?
**A.** > 4 mM (inactive)

**Q.** For O=C1CSC(=Nc2cccc(C(F)(F)F)c2)N1, which Kd is on record?
**A.** > 4 mM (inactive)

**Q.** With CCN(CC)S(=O)(=O)c1cccc2nsnc12 as the compound, how does the Kd read?
**A.** > 4 mM (inactive)

**Q.** Which Kd does the source give for COC(=O)[C@H]1[C@H]2C[C@H]3c4[nH]c5ccccc5c4CCN3C[C@H]2CC[C@@H]1O here?
**A.** > 4 mM (inactive)

**Q.** With Cc1cccc(NC(=O)Nc2cc(C)on2)c1 as the compound, how does the Kd read?
**A.** > 4 mM (inactive)

**Q.** How did the Kd turn out when Cc1cc([N+](=O)[O-])cc[n+]1[O-] was run?
**A.** > 4 mM (inactive)

**Q.** For Cn1ccc(NC(=S)NC2CCCC2)n1, which Kd is on record?
**A.** > 4 mM (inactive)

**Q.** With NNC(=O)c1ccccc1-n1cccc1 as the compound, how does the Kd read?
**A.** > 4 mM (inactive)

**Q.** With N#Cc1cn(CC(=O)N2CCCC2)c2ccccc12 as the compound, how does the Kd read?
**A.** > 4 mM (inactive)

**Q.** Which Kd does the source give for OCC1Cc2ccccc2CN1 (stereo not given) here?
**A.** > 4 mM (inactive)

**Q.** How did the Kd turn out when COc1ccc(C)cc1S(=O)(=O)N1CCCCC1 was run?
**A.** > 4 mM (inactive)

**Q.** Which Kd does the source give for COC(=O)Nc1nc2c(s1)CCCC2 here?
**A.** > 4 mM (inactive)

**Q.** CCCn1cnc2sc(C(N)=O)c(C)c2c1=O was tested. Which Kd did it give?
**A.** > 4 mM (inactive)

**Q.** Which Kd does the source give for Cc1cccc(N2CCN(C(=O)c3ccncc3)CC2)c1C here?
**A.** > 4 mM (inactive)

**Q.** How did the Kd turn out when CN1CCN(CC(O)c2ccccc2)CC1 (stereo not given) was run?
**A.** > 4 mM (inactive)

**Q.** For NC(=O)CSc1ccc(-c2ccccc2)nn1, which Kd is on record?
**A.** > 4 mM (inactive)

**Q.** CCOC(=O)c1cnn2ccccc12 was tested. Which Kd did it give?
**A.** > 4 mM (inactive)

**Q.** With O=C(O)c1cnn2ccccc12 as the compound, how does the Kd read?
**A.** > 4 mM (inactive)

**Q.** Which Kd does the source give for Cn1cc(Cl)c(C(=O)NC2CCCCCC2)n1 here?
**A.** > 4 mM (inactive)

**Q.** Which Kd does the source give for CC(=O)Nc1cc(C(N)=O)cc(C(N)=O)c1 here?
**A.** > 4 mM (inactive)

**Q.** How did the Kd turn out when C=C1C2=CC(=O)O[C@@H](c3ccoc3)[C@]2(C)CCC1[C@@]1(C)C=CC(=O)C(C)(C)[C@@H]1CC(=O)OC (stereo not given in full) was run?
**A.** > 4 mM (inactive)

**Q.** Which Kd does the source give for COC(=O)C1=C(C)N(c2cccc(C(C)=O)c2)C(=O)C1 here?
**A.** > 4 mM (inactive)

**Q.** For O=C(Nc1nccs1)c1ccc(=O)[nH]n1, which Kd is on record?
**A.** > 4 mM (inactive)

**Q.** Which Kd does the source give for COC(=O)c1scc(S(C)(=O)=O)c1-n1cccc1 here?
**A.** > 4 mM (inactive)

**Q.** With O=C1CC(c2c[nH]c3ccccc23)C(=O)N1 (stereo not given) as the compound, how does the Kd read?
**A.** > 4 mM (inactive)

**Q.** For O=C(O)c1ccc(-n2ccnc2)cc1, which Kd is on record?
**A.** > 4 mM (inactive)

**Q.** For CC1(C)C[C@@H]2C(=O)CC[C@H]3O[C@]3(C)CC[C@H]21, which Kd is on record?
**A.** > 4 mM (inactive)

**Q.** With CC(=O)c1ccc(N2C(=O)C(C(C)C)NC2=S)cc1 (stereo not given) as the compound, how does the Kd read?
**A.** > 4 mM (inactive)

**Q.** For COc1ccc(-c2cc(=O)c3cc(OC)ccc3o2)cc1, which Kd is on record?
**A.** > 4 mM (inactive)

**Q.** How did the Kd turn out when CN1CN/C(=N\[N+](=O)[O-])N(c2ccccc2)C1 was run?
**A.** > 4 mM (inactive)

**Q.** With CCC1=Nc2ccccc2-c2nnc(SC)nc2O1 as the compound, how does the Kd read?
**A.** > 4 mM (inactive)

**Q.** How did the Kd turn out when Cc1ccc(C(=O)N2CCC(C(N)=O)CC2)cc1C was run?
**A.** > 4 mM (inactive)

**Q.** CS(=O)(=O)Nc1nnc(Cc2ccccc2)s1 was tested. Which Kd did it give?
**A.** > 4 mM (inactive)

**Q.** Which Kd does the source give for COc1cccc(-c2csc(NC(C)=O)n2)c1 here?
**A.** > 4 mM (inactive)

**Q.** How did the Kd turn out when COc1ccc(-c2oc3c(CC=C(C)C)c(O[C@@H]4O[C@H](CO)[C@@H](O)[C@H](O)[C@H]4O)cc(O)c3c(=O)c2O[C@@H]2O[C@@H](C)[C@H](O)[C@@H](O)[C@H]2O)cc1 was run?
**A.** > 4 mM (inactive)

**Q.** How did the Kd turn out when NCc1c[nH]c2ccccc12 was run?
**A.** > 4 mM (inactive)

**Q.** Which Kd does the source give for Oc1ccccc1N1CCOCC1 here?
**A.** > 4 mM (inactive)

**Q.** How did the Kd turn out when O=c1[nH]nc(Cc2ccccn2)c2ccccc12 was run?
**A.** > 4 mM (inactive)

**Q.** Which Kd does the source give for CC1=C/C(=C\c2c(O)[nH]c(=O)[nH]c2=O)C(C)=N1 here?
**A.** > 4 mM (inactive)

**Q.** How did the Kd turn out when C(=N\c1ncn[nH]1)/c1cccs1 was run?
**A.** > 4 mM (inactive)

**Q.** With CC(=O)Oc1cc2c(C(C)=O)coc2c2ccccc12 as the compound, how does the Kd read?
**A.** > 4 mM (inactive)

**Q.** Which Kd does the source give for O=C(O)C1Cc2ccccc2N1 (stereo not given) here?
**A.** > 4 mM (inactive)

**Q.** Nc1cc2ccccc2cn1 was tested. Which Kd did it give?
**A.** > 4 mM (inactive)

**Q.** S=C(Nc1ccccc1)Nc1nncs1 was tested. Which Kd did it give?
**A.** > 4 mM (inactive)

**Q.** How did the Kd turn out when COc1cccc(NC(=O)c2ocnc2C)c1 was run?
**A.** > 4 mM (inactive)

**Q.** With Nc1cccc(S(N)(=O)=O)c1 as the compound, how does the Kd read?
**A.** > 4 mM (inactive)

**Q.** How did the Kd turn out when O=C(CS(=O)(=O)c1ccccc1)Nc1nccs1 was run?
**A.** > 4 mM (inactive)

**Q.** Which Kd does the source give for CC1(C)SCC(C(=O)O)N1C=O (stereo not given) here?
**A.** > 4 mM (inactive)

**Q.** With CC(=O)O[C@@H]1CC2C(C)(C)[C@H](O)C=C[C@]2(C)C2CC[C@@]3(C)[C@H](c4ccoc4)OC(=O)C4OC43[C@@]21C (stereo not given in full) as the compound, how does the Kd read?
**A.** > 4 mM (inactive)

**Q.** With CN(C)c1nc(N)nc(Cn2ccnc2)n1 as the compound, how does the Kd read?
**A.** > 4 mM (inactive)
